Values of other authors in patent EP2965746B1 (Santa Farma Ilaç Sanayi A.S., priority 2014, dated 2016).
Converted amounts (≈) assume the structure as drawn.

Assays:
[1] = in vivo
[2] = in water
[3] = in vivo; remark: listed apart in the source

SMILES	time to reach maximum plasma concentration (Tmax) [1]	solubility [2]	absolute bioavailability [3]
CC(C)Cc1ccc(C(C)C(=O)O)cc1.O.O.[Na] (stereo not shown) [Ibuprofen sodium dihydrate, ibuprofen sodium dihydrate]	0.6 ± 0.3 h	–	–
CC(C)Cc1ccc(C(C)C(=O)O)cc1 (racemic) [Ibuprofen, (±)-(R,S)-2-(4-isobutylphenyl)-propionic acid]	1.4 ± 1.1 h	0.078 µg/mL (≈ 0.378 µM)	about 100%
